Results taken from US11873320B2 (REATA PHARMACEUTICALS HOLDINGS, LLC, priority 2013, dated 2024).
Like-named read-outs stand apart in the source and are kept apart here.

Tests used:
CYP1A2 = assay: CYP450 induction in cultured human hepatocytes: CYP1A2; assay type: in vitro ADME; conditions: up to 3 μM
[1] = metabolism in rodent liver microsomes; assay type: in vitro ADME, mice, rats; conditions: 60-minute incubation, NADPH and UGT
RAW264.7 cells = assay: WST-1 cell viability, RAW264.7; assay type: cell-based; conditions: Mus musculus
Procedure: Inhibition of IFNγ-induced NO production by AIMs is Nrf2-dependent (Dinkova-Kostova, 2005). […] Nitrite (NO2^−) levels in the media were measured as a surrogate for nitric oxide using the Griess reagent assay. Cell viability was assessed using the WST-1 assay. […] 63170, 63171, 63179, and 63189 are compounds of the formulas: […]

CYP3A4 = assay: CYP450 induction in cultured human hepatocytes: CYP3A4; assay type: in vitro ADME; conditions: up to 3 μM
[2] = test system: acute radiation dermatitis; assay: acute radiation dermatitis model, BALB/c mice; assay type: in vivo, mouse
Procedure: Using male BALB/c mice, a 30 Gy dose of radiation was administered on day 0 (Table 3). […] The remaining mice were sacrificed on day 30 at 4 hours postdose. Plasma was collected on days 12 and 30 as well as irradiated skin samples for mRNA and histological examination. [table]

cynomolgus monkeys = conditions: for ALP (U/L) / ALT (U/L) / AST (U/L) / Albumin / BUN / Chol / Cr / Glucose / TG / Tot Bil / Tot Prot: Day 14
[3] = mouse tissue distribution, 25 mg/kg PO QD×3
Nrf2 target genes = assay: Nrf2 target gene expression in HFL1 lung fibroblasts (quantitative PCR); assay type: cell-based, human; conditions: 18 hours
CYP2B6 = assay: CYP450 induction in cultured human hepatocytes: CYP2B6; assay type: in vitro ADME; conditions: up to 3 μM
rats = assay: 28-day toxicity study in rats; assay type: in vivo, rat
Text: One hypothesis for this effect is that AIMs directly or indirectly increase transaminase gene expression in the absence of cellular toxicity.

[4] = test system: Nrf2 protein expression in SK-N-SH cells; assay: in-cell western NQO1 assay, SK-N-SH cells; assay type: cell-based; conditions: Homo sapiens, 72 h, 3 days incubation, read-out: EC50 for induction of Nrf2 protein expression in SK-N-SH cells
Procedure: HMOX1 protein was not detected in untreated or RTA 408-treated SH-SY5Y cells. […] The same amount of 63170 (54.6 nM) was required.
The EC50 was measured using an in-cell western NQO1 assay where the cells were incubated with the compound under evaluation for 3 days. After incubation with the compound of interest, the cells were reacted with mouse NQO1 antibody and then the next day the cells were reacted with IRDye-800CW-anti-mouse IgG antibody. The target signals were visualized and then analyzed.

[5] = test system: radiation-induced oral mucositis; assay: radiation-induced oral mucositis in hamsters
CD rats = assay: pulmonary evaluation in rats; assay type: in vivo, rat; conditions: doses up to and including 30 mg/kg, single oral dose
Procedure: One additional group of eight animals/sex served as the control and received vehicle (sesame oil).
Observations for mortality, morbidity, injury, and availability of food and water were conducted twice daily for all animals. Clinical observations were conducted prior to dosing, approximately 4 hours post-dose, and following completion of the 8-hour pulmonary monitoring period. […] Pulmonary function (respiratory rate, tidal volume, and minute volume) was monitored for at least 1 hour prior to dosing to establish a baseline and for at least 8 hours post-dose.

SMILES: CC1(C)CC[C@]2(NC(=O)C(C)(F)F)CC[C@]3(C)[C@H](C(=O)C=C4[C@@]5(C)C=C(C#N)C(=O)C(C)(C)[C@@H]5CC[C@]43C)[C@@H]2C1 [RTA 408, N-((4aS,6aR,6bS,8aR,12aS,14aR,14bS)-11-cyano-2,2,6a,6b,9,9,12a-heptamethyl-10,14-dioxo-1,2,3,4,4a,5,6,6a,6b,7,8,8a,9,10,12a,14,14a,14b-octadecahydropicen-4a-yl)-2,2-difluoropropanamide]
- induction of enzyme activity (CYP1A2): not an inducer
- parent molecule remaining [1]: > 65%
- IC50 (RAW264.7 cells): 125 nM
- induction of enzyme activity (CYP3A4): not an inducer
- percentage of mice with dermatitis clinical score above 3 ([2]; oral administration): significantly lower
- Percentage of mice which scored above 2 in clinical dermatitis exam ([2]; topical 0.01%, Day 12): 0.0%
- Percentage of mice which scored above 2 in clinical dermatitis exam ([2]; topical 0.01%, Day 14): 0.0%
- Percentage of mice which scored above 2 in clinical dermatitis exam ([2]; topical 0.01%, Day 16): 20.0%
- Percentage of mice which scored above 2 in clinical dermatitis exam ([2]; topical 0.01%, Day 18): 50.0%
- Percentage of mice which scored above 2 in clinical dermatitis exam ([2]; topical 0.01%, Day 20): 10.0%
- Percentage of mice which scored above 2 in clinical dermatitis exam ([2]; topical 0.01%, Day 22): 40.0%
- Percentage of mice which scored above 2 in clinical dermatitis exam ([2]; topical 0.01%, Day 24): 40.0%
- Percentage of mice which scored above 2 in clinical dermatitis exam ([2]; topical 0.01%, Day 26): 40.0%
- Percentage of mice which scored above 2 in clinical dermatitis exam ([2]; topical 0.01%, Day 28): 20.0%
- Percentage of mice which scored above 2 in clinical dermatitis exam ([2]; topical 0.01%, Day 30): 10.0%
- Percentage of mice which scored above 2 in clinical dermatitis exam ([2]; topical 0.1%, Day 12): 7.1%
- Percentage of mice which scored above 2 in clinical dermatitis exam ([2]; topical 0.1%, Day 14): 10.0%
- Percentage of mice which scored above 2 in clinical dermatitis exam ([2]; topical 0.1%, Day 16): 20.0%
- Percentage of mice which scored above 2 in clinical dermatitis exam ([2]; topical 0.1%, Day 18): 80.0%
- Percentage of mice which scored above 2 in clinical dermatitis exam ([2]; topical 0.1%, Day 20): 60.0%
- Percentage of mice which scored above 2 in clinical dermatitis exam ([2]; topical 0.1%, Day 22): 40.0%
- Percentage of mice which scored above 2 in clinical dermatitis exam ([2]; topical 0.1%, Day 24): 30.0%
- Percentage of mice which scored above 2 in clinical dermatitis exam ([2]; topical 0.1%, Day 26): 10.0%
- Percentage of mice which scored above 2 in clinical dermatitis exam ([2]; topical 0.1%, Day 28): 0.0%
- Percentage of mice which scored above 2 in clinical dermatitis exam ([2]; topical 0.1%, Day 30): 0.0%
- Percentage of mice which scored above 2 in clinical dermatitis exam ([2]; topical 1.0%, Day 14): 20.0%
- Percentage of mice which scored above 2 in clinical dermatitis exam ([2]; topical 1.0%, Day 16): 10.0%
- Percentage of mice which scored above 2 in clinical dermatitis exam ([2]; topical 1.0%, Day 18): 70.0%
- Percentage of mice which scored above 2 in clinical dermatitis exam ([2]; topical 1.0%, Day 20): 30.0%
- Percentage of mice which scored above 2 in clinical dermatitis exam ([2]; topical 1.0%, Day 22): 10.0%
- Percentage of mice which scored above 2 in clinical dermatitis exam ([2]; topical 1.0%, Day 24): 0.0%
- Percentage of mice which scored above 2 in clinical dermatitis exam ([2]; topical 1.0%, Day 26): 0.0%
- Percentage of mice which scored above 2 in clinical dermatitis exam ([2]; topical 1.0%, Day 28): 0.0%
- Percentage of mice which scored above 2 in clinical dermatitis exam ([2]; topical 1.0%, Day 30): 0.0%
- percentage of mice with dermatitis clinical score above 2 ([2]; topical administration): slightly lower
- ALP (U/L) (cynomolgus monkeys; 10 mg/kg): 382 U/L
- ALT (U/L) (cynomolgus monkeys; 10 mg/kg): 46 U/L
- AST (U/L) (cynomolgus monkeys; 10 mg/kg): 38 U/L
- Albumin (cynomolgus monkeys; 10 mg/kg): 4 g/dL
- BUN (cynomolgus monkeys; 10 mg/kg): 27 mg/dL
- Chol (cynomolgus monkeys; 10 mg/kg): 144 mg/dL
- Cr (cynomolgus monkeys; 10 mg/kg): 0.68 mg/dL
- Glucose (cynomolgus monkeys; 10 mg/kg): 39 mg/dL
- TG (cynomolgus monkeys; 10 mg/kg): 82 mg/dL
- Tot Bil (cynomolgus monkeys; 10 mg/kg): 0.23 mg/dL
- Tot Prot (cynomolgus monkeys; 10 mg/kg): 7.2 g/dL
- ALP (U/L) (cynomolgus monkeys; 30 mg/kg): 416 U/L
- ALT (U/L) (cynomolgus monkeys; 30 mg/kg): 47 U/L
- AST (U/L) (cynomolgus monkeys; 30 mg/kg): 43 U/L
- Albumin (cynomolgus monkeys; 30 mg/kg): 4 g/dL
- BUN (cynomolgus monkeys; 30 mg/kg): 20 mg/dL
- Chol (cynomolgus monkeys; 30 mg/kg): 122 mg/dL
- Cr (cynomolgus monkeys; 30 mg/kg): 0.58 mg/dL
- Glucose (cynomolgus monkeys; 30 mg/kg): 53 mg/dL
- TG (cynomolgus monkeys; 30 mg/kg): 64 mg/dL
- Tot Bil (cynomolgus monkeys; 30 mg/kg): 0.2 mg/dL
- Tot Prot (cynomolgus monkeys; 30 mg/kg): 7.2 g/dL
- ALP (U/L) (cynomolgus monkeys; 100 mg/kg): 390 U/L
- ALT (U/L) (cynomolgus monkeys; 100 mg/kg): 43 U/L
- AST (U/L) (cynomolgus monkeys; 100 mg/kg): 37 U/L
- Albumin (cynomolgus monkeys; 100 mg/kg): 3.2 g/dL
- BUN (cynomolgus monkeys; 100 mg/kg): 24 mg/dL
- Chol (cynomolgus monkeys; 100 mg/kg): 93 mg/dL
- Cr (cynomolgus monkeys; 100 mg/kg): 0.55 mg/dL
- Glucose (cynomolgus monkeys; 100 mg/kg): 32 mg/dL
- TG (cynomolgus monkeys; 100 mg/kg): 61 mg/dL
- Tot Bil (cynomolgus monkeys; 100 mg/kg): 0.18 mg/dL
- Tot Prot (cynomolgus monkeys; 100 mg/kg): 6 g/dL
- toxicity suggested by clinical chemistry data (cynomolgus monkeys; 14 days): no obvious toxicity
- mRNAs of Nrf2 target genes in liver and lung (cynomolgus monkeys; PO QD×14): induces Nrf2 target genes in monkey tissues
- tolerability (cynomolgus monkeys; all doses, 14 days): well-tolerated without adverse clinical signs
- Nrf2 target enzyme activity (NQO1, GSR) in various tissues (cynomolgus monkeys; monkey, in vivo): induces Nrf2 target enzyme activity
- levels in the CNS [3]: Notable levels were observed in the CNS
- concentration at which induction of NQO1, HMOX1, GCLM, TXNRD1 is evident (Nrf2 target genes): ≤ 15.6 nM
- induction of enzyme activity (CYP2B6): not an inducer
- transaminases (rats): Transaminase elevations
- EC50 [4]: 56.4 nM
- hamsters euthanized on Day 2 due to weight loss in excess of 20% ([5]; 100 mg/kg): two out of eight
- duration of ulcerative mucositis ([5]; 30 and 100 mg/kg): significant reduction
- percentage of animals with mucositis scores ≥3 ([5]; hamster, in vivo): dose-dependent decrease
- basic pulmonary endpoints (CD rats): did not produce any adverse effects
